Numbered stars: 1 amine (or outer) side, 2 acyl side, 3 side chain; on linkers, the order of the positions; unused ones are H or OH. Bridge positions count the residues as written; N and C are the ends. Square brackets hold non-standard residues; d marks the D form. Peptide text beside a SMILES is read from it. * marks the point of attachment. X45 = CN([C@@H](CC=C1CN(C(=O)OC(C)(C)C)C1)C(=O)[*:2])[*:1]; hPhe(3-Cl-4-CF3) = N[C@@H](CCc1ccc(C(F)(F)F)c(Cl)c1)C(=O)O; hPhe(4-CF3) = N[C@@H](CCc1ccc(C(F)(F)F)cc1)C(=O)O; NMePhe(4-Cl) = CN[C@@H](Cc1ccc(Cl)cc1)C(=O)O; X29 = O=C([C@H](CCc1cc(Cl)ccc1F)N[*:1])[*:2]; NMePhe(4-Me) = CN[C@@H](Cc1ccc(C)cc1)C(=O)O; hPhe(4-Cl) = N[C@@H](CCc1ccc(Cl)cc1)C(=O)O; NMedβ3hAla = C[C@H](CC(=O)[*:2])N(C)[*:1]; NMeGly(cPent) = CN[C@H](C(=O)O)C1CCCC1; NMeCha = CN[C@@H](CC1CCCCC1)C(=O)O; Hyp = O=C(O)[C@@H]1C[C@@H](O)CN1; NMeChg = CN[C@H](C(=O)O)C1CCCCC1; NMeF = CN[C@@H](Cc1ccccc1)C(=O)O; X12 = O=C(CN(CC1COC1)[*:1])[*:2]; NMeD = CN[C@@H](CC(=O)O)C(=O)O; NMeL = CN[C@@H](CC(C)C)C(=O)O; NMeV = CN[C@H](C(=O)O)C(C)C; d(β3hA) = C[C@@H](N)CC(=O)O; NMeA = CN[C@@H](C)C(=O)O; NMeAib = CNC(C)(C)C(=O)O; Piperidide = C1CCN(*)CC1; dNMeA = CN[C@H](C)C(=O)O; Ac5c = NC1(C(=O)O)CCCC1; Aze = O=C(O)[C@@H]1CCN1; X53 = CC1(C)CCN(*)C1; Sar = CNCC(=O)O
These molecules were tested against protein-protein interaction between Kras and SOS1 (biotin-tagged human Kras loaded with GDP, His-tagged human SOS1) (Homo sapiens (Human), UniProt P01116, G12D) (assay: Protein-protein interaction inhibition between Kras and SOS1 (KrasG12D-SOS PPI) using AlphaScreen). Conditions: AlphaScreen; biotin-tagged human Kras loaded with GDP, His-tagged human SOS1; read-out: KRAS G12D-SOS PPI IC50.
Assay type: biochemical
With CC[C@H](C)[C@@H]1NC(=O)[C@H](CC(C)C)N(C)C(=O)C[C@@H](C(=O)N2CCCCC2)N(C)C(=O)[C@H](C2CCCCC2)N(C)C(=O)C2(CCCC2)NC(=O)CN(CC2COC2)C(=O)[C@H](CCc2ccc(C(F)(F)F)c(Cl)c2)NC(=O)CN(C)C(=O)[C@H](CC2CCCCC2)N(C)C(=O)CN(C)C(=O)CN(C)C1=O [Compound 2031] ([NMeL]I[Sar][Sar][NMeCha][Sar][hPhe(3-Cl-4-CF3)][X12][Ac5c][NMeChg][NMeD]-Piperidide; lactam N-11 (inferred); C-terminus assumed) the IC50 was 0.82 nM.
CC[C@H](C)[C@@H]1NC(=O)[C@H](CC(C)C)N(C)C(=O)C[C@@H](C(=O)N2CCC(C)(C)C2)NC(=O)[C@H](C(C)C)N(C)C(=O)C2(CCCC2)NC(=O)[C@@H]2CCCN2C(=O)[C@H](CCc2ccc(C(F)(F)F)c(Cl)c2)NC(=O)CN(C)C(=O)[C@H](CC2CCCCC2)N(C)C(=O)[C@@H]2CCN2C(=O)[C@H](C)N(C)C1=O [Compound 1280] ([NMeL]I[NMeA][Aze][NMeCha][Sar][hPhe(3-Cl-4-CF3)]P[Ac5c][NMeV]D-X53; lactam N-11) was tested, and the IC50 was 74 nM.
CC[C@H](C)[C@@H]1NC(=O)[C@H](CC(C)C)N(C)C(=O)C[C@@H](C)NC(=O)[C@H](C2CCCC2)N(C)C(=O)C2(CCCC2)NC(=O)[C@@H]2CCCN2C(=O)[C@H](CCc2ccc(C(F)(F)F)c(Cl)c2)NC(=O)CN(C)C(=O)[C@H](Cc2ccc(C)cc2)N(C)C(=O)CN(C)C(=O)CN(C)C1=O [Compound 1471] (cyclo([Ac5c][NMeGly(cPent)][d(β3hA)][NMeL]I[Sar][Sar][NMePhe(4-Me)][Sar][hPhe(3-Cl-4-CF3)]P)) gave an IC50 of 1.7 nM.
Work on CC[C@H](C)[C@@H]1NC(=O)[C@H](C)N(C)C(=O)C[C@@H](C)NC(=O)[C@H](CC(C)C)N(C)C(=O)[C@H](Cc2ccccc2)N(C)C(=O)[C@H](CC(C)C)NC(=O)[C@H](CCc2cc(Cl)ccc2F)NC(=O)CN(C)C(=O)[C@H](Cc2ccc(Cl)cc2)N(C)C(=O)CN(C)C(=O)CN(C)C1=O [Compound 2094] (cyclo(I[Sar][Sar][NMePhe(4-Cl)][Sar][X29]L[NMeF][NMeL][d(β3hA)][NMeA])) yielded an IC50 of 200 nM.
Work on CC[C@H](C)[C@@H]1NC(=O)[C@H](CC2CCCCC2)N(C)C(=O)C[C@@H](C)N(C)C(=O)[C@H](CC(C)C)NC(=O)C(C)(C)N(C)C(=O)[C@H](CC(C)C)NC(=O)[C@H](CCc2ccc(C(F)(F)F)cc2)NC(=O)CN(C)C(=O)[C@H](Cc2ccc(Cl)cc2)N(C)C(=O)CN(C)C(=O)CN(C)C1=O [Compound 595] (cyclo(I[Sar][Sar][NMePhe(4-Cl)][Sar][hPhe(4-CF3)]L[NMeAib]L[NMedβ3hAla][NMeCha])) yielded an IC50 of 290 nM.
With CC[C@H](C)[C@@H]1NC(=O)[C@H](CC(C)C)N(C)C(=O)C[C@@H](C(=O)N2CCCCC2)N(C)C(=O)[C@H](C2CCCCC2)N(C)C(=O)C2(CCCC2)NC(=O)[C@H](CC=C2CN(C(=O)OC(C)(C)C)C2)N(C)C(=O)[C@H](CCc2ccc(C(F)(F)F)c(Cl)c2)NC(=O)CN(C)C(=O)[C@H](CC2CCCCC2)N(C)C(=O)CN(C)C(=O)CN(C)C1=O [Compound 2050, tert-butyl 3-[2-[(8S,11S,17S,26S,29S,33S,36S)-11-[2-[3-chloro-4-(trifluoromethyl)phenyl]ethyl]-36-cyclohexyl-17-(cyclohexylmethyl)-29-isobutyl-9,15,18,21,24,30,34,37-octamethyl-26-[(1S)-1-methylpropyl]-7,10,13,16,19,22,25,28,31,35,38-undecaoxo-33-(piperidine-1-carbonyl)-6,9,12,15,18,21,24,27,30,34,37-undecazaspiro[4.33]octatriacontan-8-yl]ethylidene]azetidine-1-carboxylate] ([NMeL]I[Sar][Sar][NMeCha][Sar][hPhe(3-Cl-4-CF3)][X45][Ac5c][NMeChg][NMeD]-Piperidide; lactam N-11) the IC50 was 51 nM.
CC[C@H](C)[C@@H]1NC(=O)[C@H](CC(C)C)N(C)C(=O)C[C@@H](C(=O)N2CCCCC2)N(C)C(=O)[C@H](C(C)C)N(C)C(=O)C2(CCCC2)NC(=O)[C@@H]2CCCN2C(=O)[C@H](CCc2ccc(Cl)cc2)NC(=O)CN(C)C(=O)[C@H](CC2CCCCC2)N(C)C(=O)[C@@H]2CCN2C(=O)CN(C)C1=O [Compound 916] ([NMeL]I[Sar][Aze][NMeCha][Sar][hPhe(4-Cl)]P[Ac5c][NMeV][NMeD]-Piperidide; lactam N-11) was tested, and the IC50 was 42 nM.
Molecule CCO[C@@H]1C[C@H]2C(=O)N(C)[C@@H](Cc3ccccc3)C(=O)N(C)[C@@H](CC(C)C)C(=O)N[C@H](C)CC(=O)N(C)[C@@H](C)C(=O)N[C@@H]([C@@H](C)CC)C(=O)N(C)CC(=O)N(C)CC(=O)N(C)[C@@H](Cc3ccc(Cl)cc3)C(=O)N(C)CC(=O)N[C@@H](CCc3ccc(C(F)(F)F)cc3)C(=O)N2C1 [Compound 322] (cyclo([Hyp](Et)[NMeF][NMeL][d(β3hA)][NMeA]I[Sar][Sar][NMePhe(4-Cl)][Sar][hPhe(4-CF3)])) has an IC50 of 31 nM.
Molecule CC[C@H](C)[C@@H]1NC(=O)[C@H](C)N(C)C(=O)C[C@@H](C)NC(=O)[C@H](C2CCCC2)N(C)C(=O)C2(CCCC2)NC(=O)[C@@H]2CCCN2C(=O)[C@H](CCc2ccc(C(F)(F)F)c(Cl)c2)NC(=O)[C@@H](C)N(C)C(=O)[C@H](C(C)C)N(C)C(=O)[C@@H]2CCN2C(=O)[C@H](C)N(C)C1=O [Compound 1066] (cyclo([Ac5c][NMeGly(cPent)][d(β3hA)][NMeA]I[NMeA][Aze][NMeV][dNMeA][hPhe(3-Cl-4-CF3)]P)) has an IC50 of 24 nM.

Source: patent US20240148821A1, “PHARMACEUTICAL USE OF CYCLIC PEPTIDE COMPOUND” (CHUGAI SEIYAKU KABUSHIKI KAISHA, priority 2021, published 2024)
